CC50, EC50 and IC50 data for 9 molecules are collected here from US20230136702A1, “Inhibitors of Human Herpesviruses” (The Governors of the University of Alberta, priority 2020, published 2023).

The structures appear in SMILES notation. Counter-ions that a name gives are not always drawn.

Data set [1] is described as follows: Cytotoxicity in MRC5 cells without virus infection (CCK8). The settings on record: human. The class given is cell-based. How it is done: (§1) Exemplary compounds (e.g., as described herein) were prepared as 20 mM stock solutions with DMSO. Reference compound was ganciclovir (Sigma). Compounds were tested at 8 concentrations, 3-fold serial dilutions, in duplicate for EC50 and CC50 determinations. The highest testing concentrations of the exemplary compounds and reference compound were 40 μM and 100 μM, respectively. The final concentration of DMSO in the cell culture was 0.5%.
(§2) MRC5 cells (ATCC CCL-171) was obtained from the ATCC and maintained in the EMEM (Sigma) supplemented with 10% FBS (HyClone), 1% L-glutamine (Gibco), 1% NEAA (Gibco), and 1% PS (Hyclone). Reagent:
Cytotoxicity of the compounds was assessed under the same conditions, but without virus infection, in parallel. Cell viability was measured with CCK8 following the manufacturer's manual. CC50 values were then calculated based on cytotoxicity at the test concentrations normalized by the medium control (medium only).
(§3) Antiviral activity and cytotoxicity of the compounds were expressed as % Inhibition and % Viability, respectively, and calculated with the formulas below:
Viability (%)=(Raw dataCPD−AverageMC)/(AverageCC−AverageMC)*100
(§4) Raw dataCPD indicates the values of the compound-treated wells; AverageVC, AverageCC and AverageMC indicate the average values of the virus control (cells infected with virus, without compound treatment), cell control and medium control wells, respectively.
(§5) EC50 and CC50 values were calculated using the GraphPad Prism software.

Data set [2] concerns HCMV US3-6-EGFP-HCMV-AD169 strain. Nature of the data set: In vitro inhibitory (antiviral) activity against HCMV, GFP reporter in MRC5 cells. The class given is cell-based, Human cytomegalovirus (HCMV). The settings on record: Human betaherpesvirus 5, AD169, MRC5, 96 h, read-out: HCMV Antiviral EC50 range. The protocol:
as §1
HCMV US3-6-EGFP-HCMV-AD169 strain was obtained from Institute Pasteur of Shanghai, CAS. The virus contains GFP as a reporter of the viral replication.
as §2
In 96-well plates, MRC5 cells were seeded at 20,000 cells per well and cultured at 37° C. and 5% C02 overnight. Next day, compounds (8 concentrations, 3-fold dilutions, in duplicate) and US3-6-EGFP-HCMV-AD169 (MOI=0.1) were added to the cells. The resulting cultures were incubated at 37° C. and 5% C02 for 4 days. Fluorescence intensity was determined by Acumen Cellista (TTP LabTech). The antiviral activity of each compound was calculated based on the inhibition of expression of GFP at each concentration normalized by the cell control (cells without virus infection or compound treatment).
as §3
Inhibition (%)=100−(Raw dataCPD−AverageCC)/(AverageVC−AverageCC)*100
as §4, §5

A further data set deals with T1, hERG potassium channel (Homo sapiens, UniProt Q12809).
T1 construct: host or cells: CHO cells stably expressing hERG
Description: Inhibition of hERG potassium channel, automated patch clamp (SyncroPatch 384PE) in CHO cells. The class given is cell-based. The settings on record: CHO cells stably expressing hERG, room temperature, 0.494-40.00 μM; read-out: CHO-hERG Activity Range. The protocol:
This automated patch clamp method (SyncroPatch 384PE) CHO cells stably expressing hERG potassium channels from Sophion Biosciences were used for this test.
The cells were cultured in a humidified and air-controlled (5% C02) incubator at 37° C.
The CHO cells which were at least two days after plating and more than 75% confluent would be used for experiments. Before testing, cells were harvested using TrypLE and resuspended in the physiological solution at the room temperature.
For the electrophysiological recordings the following solutions were used (Table 5). The physiological solution and external solution were prepared at least one month. The intracellular solution was prepared in batches aliquoted, and stored at 4° C. until used.
Exemplary compounds (e.g., as described herein) were dissolved in 100% DMSO to obtain stock solutions for different test concentrations. Then the stock solutions were further diluted into external solution to achieve final concentrations for testing. Visual check for precipitation was conducted before testing. Final DMSO concentration in external solution was not more than 0.30% for the compounds.
From this holding potential of −80 mV, the voltage was first stepped to −50 mV for 80 ms for leak subtraction, and then stepped to +20 mV for 4800 ms to open hERG channels. After that, the voltage was stepped back down to −50 mV for 5000 ms, causing a “rebound” or tail current, which was measured and collected for data analysis. Finally, the voltage was stepped back to the holding potential (−80 mV, 1000 ms). This voltage command protocol was repeated every 20000 msec. This command protocol was performed continuously during the test (vehicle control and test compound).
hERG SyncroPatch assay was conducted at room temperature. The Setup, Prime Chip, Catch and Seal Cells, Amplifier Settings, Voltage and Application Protocols were established with Biomek Software (Nanion).
One addition of 40 μL of the vehicle was applied, followed by 300s for a baseline period. Then the doses of exemplary test compounds were added with 40 μL. The exposure of test compound at each concentration was no less than 300s. […] Five concentrations (0.494 μM, 1.48 μM, 4.44 μM, 13.33 μM and 40.00 μM) were tested for each compound. Minimum 2 replicates per concentration were obtained.
Within each well recording, percent of control values were calculated for each test compound concentration current response based on peak current in presence of reference control (current response/peak current)×100%. The Dose-Response curves were fit to the standard Hill equation as shown below:
Ipost cpd/Ipre cpd=Bottom+(Top−Bottom)/(1+10^((Log IC50−X)*HillSlope))
Where X is the logarithm of concentration, Ipost cpd/Ipre cpd is the normalized peak current amplitude, Top is 1 and Bottom is equal to 0.
Curve-fitting and IC50 calculations were performed by GraphPad Prism 5.0. If the inhibition obtained at the lowest concentration tested was over 50%, or at the highest concentration tested was less than 50%, we reported the IC50 as less than lowest concentration, or higher than highest concentration, respectively.
(hERG is a cardiac potassium channel; its block is linked to QT prolongation.)

In data set [3] the target is T2, HCMV DNA polymerase (UL54) (Human cytomegalovirus, UniProt P08546).
T2 construct: 6His (C); made in house; host or cells: Sf9 insect cells (baculovirus, pFastBac)
Nature of the data set: HCMV DNA polymerase enzyme inhibition assay (ProFoldin, fluorescence). It is filed as biochemical. Particulars: 37° C., duplicate, max 40 μM. The protocol:
The HCMV DNA polymerase assay was developed by ProFoldin. The assay detects the formation of DNA from the DNA polymerase reaction in the presence of a DNA template, dATP and dGTP. The formation of the DNA is detected by using a fluorescence method. The fluorescence intensity increases when DNA is generated by the enzyme reaction.
A time-course experiment was performed aside the enzyme inhibition assay to ensure the assay was sensitive to the enzyme inhibition. The wells for the time-course experiment contained 1 μL of DMSO and the same reaction mixture as that in the enzyme inhibition assay. The time-course data varied between plates. The reactions were stopped when the fluorescence reached a value of about 3700 for each plate.
Exemplary solid compounds (e.g., as described herein) were dissolved in DMSO to make […] stock solutions. PFA (phosphonoformic acid or phosphonomethanoic acid) was used as a positive control. The compound mother plates were prepared at 50× concentrated compound concentrations with a 2-fold serial dilution. All the exemplary compounds except PFA were diluted in DMSO. PFA was diluted in water. The maximum compound concentration was 2 mM that gave the final concentration of 40 μM in the assay. One microliter of the 50× stock solutions was transferred into the assay plates. Three copies of assay plates were prepared, two for HCMV DNA polymerase assay and one for compound background control.
The following is the protocol for enzyme inhibition performed at 37° C.:
1. Prepared a premix composed of 35347 μL of H2O, 5220 μL of 10× assay buffer and 149 μL of 350×HCMV DNA polymerase.
2. Added 39 μL of the premix into the wells with 1 μL of the compound. Incubated the mixture for at least 5 min.
3. Added 10 μL of 5×dNTP (0.1 mM), 5×DNA template solutions into each well and incubated the solution until the fluorescence value reached a value about 3700 for the DMSO-only control wells.
4. Added 50 μL of the 1× dye into the wells.
5. Read the fluorescence at emission wavelength of 535 nm and excitation wavelength of 485 nm.
For the compound background reading, added 99 μL of water in the wells with 1 μL of compounds and read the fluorescence. […] The 0% inhibition value F0 was from the wells with DMSO (no inhibitor).
The background values were subtracted from the fluorescence reading to get the net fluorescence values. The net fluorescence values were used for calculation of the percentage inhibition.
The assay was performed in duplicate for the test article at […], 1.25, 0.625, 0.313, 0.156 and 0.078 μM. The IC50 curves were obtained by fitting the percentage inhibition values with the compound concentrations using Prism GraphPad software.

T2 sequence (P08546 whole entry): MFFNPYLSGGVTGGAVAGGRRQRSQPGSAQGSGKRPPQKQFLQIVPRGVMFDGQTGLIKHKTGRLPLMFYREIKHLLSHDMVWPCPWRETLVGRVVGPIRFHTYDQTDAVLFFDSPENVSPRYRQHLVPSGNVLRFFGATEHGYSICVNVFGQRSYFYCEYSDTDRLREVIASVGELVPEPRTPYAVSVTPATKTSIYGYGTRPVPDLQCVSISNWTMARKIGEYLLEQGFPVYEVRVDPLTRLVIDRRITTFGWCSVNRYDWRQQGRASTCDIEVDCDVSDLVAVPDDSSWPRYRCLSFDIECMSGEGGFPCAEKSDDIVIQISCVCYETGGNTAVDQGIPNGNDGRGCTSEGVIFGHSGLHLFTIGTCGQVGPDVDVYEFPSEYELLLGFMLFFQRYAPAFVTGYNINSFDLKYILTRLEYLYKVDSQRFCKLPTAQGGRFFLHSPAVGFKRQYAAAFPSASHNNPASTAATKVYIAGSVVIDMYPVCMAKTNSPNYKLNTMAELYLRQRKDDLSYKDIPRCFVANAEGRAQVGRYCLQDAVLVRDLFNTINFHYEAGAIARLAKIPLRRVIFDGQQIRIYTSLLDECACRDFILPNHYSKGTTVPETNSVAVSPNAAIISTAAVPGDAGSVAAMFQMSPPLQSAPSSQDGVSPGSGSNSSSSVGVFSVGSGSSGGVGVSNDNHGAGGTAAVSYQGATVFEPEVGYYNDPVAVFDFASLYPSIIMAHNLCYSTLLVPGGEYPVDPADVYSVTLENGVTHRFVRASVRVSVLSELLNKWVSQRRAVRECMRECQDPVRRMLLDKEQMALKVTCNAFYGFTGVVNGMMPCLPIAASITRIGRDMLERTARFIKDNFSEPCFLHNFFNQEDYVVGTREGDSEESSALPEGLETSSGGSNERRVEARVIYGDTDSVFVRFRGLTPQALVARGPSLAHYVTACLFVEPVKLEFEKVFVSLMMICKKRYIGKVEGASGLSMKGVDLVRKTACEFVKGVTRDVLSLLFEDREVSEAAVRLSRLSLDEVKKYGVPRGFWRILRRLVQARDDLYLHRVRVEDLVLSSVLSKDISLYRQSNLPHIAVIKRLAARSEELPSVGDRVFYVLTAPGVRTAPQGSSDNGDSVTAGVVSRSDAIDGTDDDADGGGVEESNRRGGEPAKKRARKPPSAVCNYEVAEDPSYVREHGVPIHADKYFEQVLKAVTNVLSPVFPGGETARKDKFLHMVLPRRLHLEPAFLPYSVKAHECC
T1 sequence (Q12809 whole entry): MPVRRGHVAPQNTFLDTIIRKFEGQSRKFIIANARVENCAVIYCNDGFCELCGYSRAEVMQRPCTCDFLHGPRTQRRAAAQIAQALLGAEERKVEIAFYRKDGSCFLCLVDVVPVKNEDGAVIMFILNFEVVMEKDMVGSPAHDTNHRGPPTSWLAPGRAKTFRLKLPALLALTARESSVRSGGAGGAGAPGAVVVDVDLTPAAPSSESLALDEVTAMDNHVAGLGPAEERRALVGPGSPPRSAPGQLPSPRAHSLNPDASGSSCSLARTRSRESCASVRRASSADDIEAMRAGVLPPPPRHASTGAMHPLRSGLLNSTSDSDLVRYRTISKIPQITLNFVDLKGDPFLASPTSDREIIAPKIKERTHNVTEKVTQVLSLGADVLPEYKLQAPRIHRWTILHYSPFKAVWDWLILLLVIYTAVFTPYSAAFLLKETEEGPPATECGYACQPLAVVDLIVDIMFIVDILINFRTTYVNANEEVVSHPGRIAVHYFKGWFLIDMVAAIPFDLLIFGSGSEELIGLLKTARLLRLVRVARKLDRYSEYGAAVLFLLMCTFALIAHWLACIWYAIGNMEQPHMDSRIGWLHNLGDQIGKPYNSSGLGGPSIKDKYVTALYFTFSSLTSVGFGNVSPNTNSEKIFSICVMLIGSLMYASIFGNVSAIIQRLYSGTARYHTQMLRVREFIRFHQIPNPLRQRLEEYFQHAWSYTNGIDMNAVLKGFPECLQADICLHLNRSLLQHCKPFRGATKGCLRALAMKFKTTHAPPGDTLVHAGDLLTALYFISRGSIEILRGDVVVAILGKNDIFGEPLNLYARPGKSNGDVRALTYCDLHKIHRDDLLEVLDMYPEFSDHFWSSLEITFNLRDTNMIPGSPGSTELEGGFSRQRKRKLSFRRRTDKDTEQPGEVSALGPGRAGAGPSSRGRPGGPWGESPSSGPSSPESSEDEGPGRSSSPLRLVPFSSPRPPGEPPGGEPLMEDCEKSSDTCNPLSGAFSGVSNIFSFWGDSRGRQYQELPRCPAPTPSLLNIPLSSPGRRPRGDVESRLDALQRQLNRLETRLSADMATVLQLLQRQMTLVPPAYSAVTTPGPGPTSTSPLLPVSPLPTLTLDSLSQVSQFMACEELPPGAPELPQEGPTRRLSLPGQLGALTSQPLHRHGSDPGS

As usually defined, the CC50 is the concentration that lowers cell viability or growth by half. As usually defined, the EC50 is the concentration at which the effect is half-maximal. Regarding `O=C(O)CN1CCN(c2cnc3c(cc(C(=O)NCc4ccc(Cl)cc4)c(=O)n3CC(=O)N3CC4(CC4)C3)n2)C1=O` [Compound 20, [3-(5-[2-(5-azaspiro[2.3]hexan-5-yl)-2-oxoethyl]-7-{[(4-chlorophenyl)methyl]carbamoyl}-6-oxo-5,6-dihydropyrido[2,3-b]pyrazin-2-yl)-2-oxoimidazolidin-1-yl]acetic acid], the CC50 at 4 days in data set [1] was above 40000 nM. The EC50 in data set [2] was above 1000 nM. The IC50 at hERG potassium channel is above 10000 nM.
As for `CNCCN1CCN(c2cnc3c(cc(C(=O)NCc4ccc(Cl)cc4)c(=O)n3CC(=O)N3CC(C)(F)C3)n2)C1=O` [Compound 23, N-[(4-chlorophenyl)methyl]-5-[2-(3-fluoro-3-methylazetidin-1-yl)-2-oxoethyl]-2-{3-[2-(methylamino)ethyl]-2-oxoimidazolidin-1-yl}-6-oxo-5,6-dihydropyrido[2,3-b]pyrazine-7-carboxamide-hydrogen chloride], in data set [3], the IC50 is below 1000 nM.
In data set [1], `CC1(F)CN(C(=O)Cn2c(=O)c(C(=O)NCc3ccc(Cl)cc3)cc3nc(N4CCN(CCC(=O)O)C4=O)cnc32)C1` [Compound 18, 3-[3-(7-{[(4-chlorophenyl)methyl]carbamoyl}-5-[2-(3-fluoro-3-methylazetidin-1-yl)-2-oxoethyl]-6-oxo-5,6-dihydropyrido[2,3-b]pyrazin-2-yl)-2-oxoimidazolidin-1-yl]propanoic acid] yielded a CC50 at 4 days above 40000 nM. Also, the IC50 in data set [3] was below 1000 nM; on hERG potassium channel it was above 10000 nM.
In data set [3], `CCOC(=O)CCN1CCN(c2cnc3c(cc(C(=O)NCc4ccc(Cl)cc4)c(=O)n3CC(=O)N3CC(C)(F)C3)n2)C1=O` [Compound 17, ethyl 3-[3-(7-{[(4-chlorophenyl)methyl]carbamoyl}-5-[2-(3-fluoro-3-methylazetidin-1-yl)-2-oxoethyl]-6-oxo-5,6-dihydropyrido[2,3-b]pyrazin-2-yl)-2-oxoimidazolidin-1-yl]propanoate] registered an IC50 below 1000 nM.
The molecule `CN(CCN1CCN(c2cnc3c(cc(C(=O)NCc4ccc(Cl)cc4)c(=O)n3CC(=O)N3CC(C)(F)C3)n2)C1=O)S(C)(=O)=O` [Compound 24, N-[(4-chlorophenyl)methyl]-5-[2-(3-fluoro-3-methylazetidin-1-yl)-2-oxoethyl]-2-(3-{2-[(methanesulfonyl)(methyl)amino]ethyl}-2-oxoimidazolidin-1-yl)-6-oxo-5,6-dihydropyrido[2,3-b]pyrazine-7-carboxamide] displayed an IC50 in data set [3] above 1000 nM.
Turning to `CC1(F)CN(C(=O)Cn2c(=O)c(C(=O)NCc3ccc(Cl)cc3)cc3nc(N4CCN(CCN5CCOCC5)C4=O)cnc32)C1` [Compound 39, N-[(4-chlorophenyl)methyl]-5-[2-(3-fluoro-3-methylazetidin-1-yl)-2-oxoethyl]-2-{3-[2-(morpholin-4-yl)ethyl]-2-oxoimidazolidin-1-yl}-6-oxo-5,6-dihydropyrido[2,3-b]pyrazine-7-carboxamide], in data set [3], the IC50 is above 1000 nM.
Same read-out and setting: the result for `CC1(F)CN(C(=O)Cn2c(=O)c(C(=O)NCc3ccc(Cl)cc3)cc3nc(N4CCN(CCNC(=O)CN)C4=O)cnc32)C1` [Compound 38, N-[(4-chlorophenyl)methyl]-5-[2-(3-fluoro-3-methylazetidin-1-yl)-2-oxoethyl]-2-{3-[2-(glycylamino)ethyl]-2-oxoimidazolidin-1-yl}-6-oxo-5,6-dihydropyrido[2,3-b]pyrazine-7-carboxamide-hydrochloride salt] reads below 1000 nM.
`CN1CCN(c2cnc3c(cc(C(=O)NCc4ccc(C#N)cc4)c(=O)n3CC(=O)N3CC4(CC4)C3)n2)C1=O` [Compound 11, 5-[2-(5-azaspiro[2.3]hexan-5-yl)-2-oxoethyl]-N-[(4-cyanophenyl)methyl]-2-(3-methyl-2-oxoimidazolidin-1-yl)-6-oxo-5,6-dihydropyrido[2,3-b]pyrazine-7-carboxamide] yielded an IC50 in data set [3] below 1000 nM.
Still for that read-out and setting: to `CN1CCN(c2cnc3c(cc(C(=O)NCc4ccc(F)cc4)c(=O)n3CC(=O)N3CC4(CC4)C3)n2)C1=O` [Compound 10, 5-[2-(5-azaspiro[2.3]hexan-5-yl)-2-oxoethyl]-N-[(4-fluorophenyl)methyl]-2-(3-methyl-2-oxoimidazolidin-1-yl)-6-oxo-5,6-dihydropyrido[2,3-b]pyrazine-7-carboxamide] belongs below 1000 nM.
